Experimental data from patent publication US20260076955A1, “JOINT CAVITY DRUG ADMINISTRATION METHOD, AND USE THEREOF” (TENNOR THERAPEUTICS (SUZHOU) LIMITED, priority 2023, published 2026).
Converted amounts (≈) assume the structure as drawn. Like-named read-outs stand apart in the source and are kept apart here. Marks after values point to notes of the source that are not given here.

Legend:
[1] = tested on: methicillin-resistant Staphylococcus aureus (MRSA, ATCC43300 strain); experiment: Rat PJI model: CFU count, scanning electron microscopy of prosthesis, H&E pathology of synovium; assay type: in vivo; conditions: for Tissue bacterial load in bone tissue / Tissue bacterial load in prosthesis / Tissue bacterial load in soft tissue: QD × 14 days, sample D 21
Excerpt: In this example, rats aged about 17 weeks were used. Before the start of drug administration treatment, each rat underwent an aseptic surgery to insert an artificial prosthesis into the knee joint, followed by an intraarticular inoculation of methicillin-resistant Staphylococcus aureus (MRSA, ATCC43300 strain) at the surgical site.

[2] = tested on: methicillin-sensitive Staphylococcus aureus (MSSA, ATCC6538 strain); experiment: Mouse metal implant joint infection model, colony counts from pin and femur; assay type: in vivo; conditions: for Femur Mean Log10 CFU / Log10 CFU Reduction vs. day 14 control, Femur / Log10 CFU Reduction vs. day 14 control, Pin / Pin Mean Log10 CFU: day 14
Excerpt: In this example, female mice aged 8-10 weeks were used and randomly grouped. Before the start of drug administration treatment, each mouse underwent a surgery involving the placement of a metal implant into the femoral-tibial joint and an intraarticular inoculation of methicillin-sensitive Staphylococcus aureus (MSSA, ATCC6538 strain) at the surgical site. Therapeutic agents were formulated as follows: • (1) compound of formula (I): when used as a therapeutic agent for intraarticular injection (IA), the compound was dissolved in 5% dextrose in water (D5W) and formulated to the required concentrations; when used as a therapeutic agent for intraperitoneal injection (IP), the compound was dissolved in a solvent system of ethanol/NaHCO3/6% Cremophor and formulated to the required concentrations; (2) vancomycin: the drug was dissolved in sterile water for injection (WFI) and formulated to the required concentration to obtain a therapeutic agent for intraarticular injection. [table] Samples were obtained from the surgical and inoculation sites of the mice, and colony counts are performed on the agar plates. The number of colonies converted to CFU/tissue by multiplying the number of colonies by the volume of the homogenate spotted and the dilution at which the colonies were counted (5-50 colonies/spot). The resulting value was expressed as log10 CFU/tissue and used to calculate the mean and standard deviations (the results are shown in Table 1).

[3] = tested on: MRSA ATCC43300 strain; experiment: MIC (minimum inhibitory concentration) determination; assay type: cell-based; conditions: Staphylococcus aureus, read-out: MIC (minimum inhibitory concentration)
[4] = tested on: Staphylococcus epidermidis; experiment: MIC90; assay type: cell-based; conditions: against Staphylococcus epidermidis
[5] = tested on: Staphylococcus epidermidis; experiment: Biofilm bactericidal activity MBBC90; assay type: cell-based; conditions: against Staphylococcus epidermidis
[6] = tested on: Staphylococcus aureus; experiment: MIC90; assay type: cell-based; conditions: against Staphylococcus aureus
[7] = Pharmacokinetics after single intraarticular injection in beagle dogs (plasma and synovial fluid); assay type: in vivo; conditions: both sexes, dog, single intraarticular injection 3 mg/kg; for AUC(0-t) / Cmax / Tmax / half-life: mean
Method: In this example, an experiment with an animal model of male and female beagle dogs was used to evaluate the pharmacokinetic behavior after a single intraarticular injection of the compound of formula (I) in the knee. A total of 6 beagle dogs (3 males and 3 females) were used for this experiment. The experimental animals received a single intraarticular injection of 3 mg/kg of the compound of formula (I) in the left joint, and a single intraarticular injection of 0.1 mL/kg of the vehicle (injection solution of 5% dextrose in water) in the right joint. From the experimental animals, plasma samples were collected before administration (0 hour) and at 0.25 hour (15 minutes), 3 hours, 9 hours, 12 hours, 24 hours, 36 hours, 48 hours, and 72 hours after administration, and left knee synovial fluid samples were collected at 12 hours, 36 hours, and 60 hours after administration. The concentrations of the compound of formula (I) in the plasma and synovial fluid samples were determined using high-performance liquid chromatography-tandem mass spectrometry (LC-MS/MS).

[8] = tested on: Staphylococcus aureus; experiment: Biofilm bactericidal activity MBBC90; assay type: cell-based; conditions: against Staphylococcus aureus
[9] = 45 mg/kg, 25 μL IA, QD × 7 days
[10] = group T2.5, 2.5 mg/kg intraarticular
[11] = group T5, 5 mg/kg intraarticular
[12] = group T10, 10 mg/kg intraarticular
[13] = 5 mg/kg, 0.2 mL IP, BID × 7 days
[14] = 15 mg/kg, 0.2 mL IP, BID × 7 days
[15] = 15 mg/kg, 25 μL IA, QD × 7 days
[16] = 45 mg/kg, 0.2 mL IP, BID × 7 days
[17] = intraarticular administration, all IA dose groups (5-45 mg/kg)

For CN[C@H](CC(C)C)C(=O)N[C@H]1C(=O)N[C@@H](CC(N)=O)C(=O)N[C@H]2C(=O)N[C@H]3C(=O)N[C@H](C(=O)N[C@H](C(=O)O)c4cc(O)cc(O)c4-c4cc3ccc4O)[C@H](O)c3ccc(c(Cl)c3)Oc3cc2cc(c3O[C@@H]2O[C@H](CO)[C@@H](O)[C@H](O)[C@H]2O[C@H]2C[C@](C)(N)[C@H](O)[C@H](C)O2)Oc2ccc(cc2Cl)[C@H]1O [Vancomycin, reference compound], the “Tissue bacterial load in bone tissue” value ([1]; group Van, 44 mg/kg) was 11733 ± 8583 CFU, the “Tissue bacterial load in prosthesis” value ([1]; group Van, 44 mg/kg) was 1783 ± 1136 CFU and the “Tissue bacterial load in soft tissue” value ([1]; group Van, 44 mg/kg) was 1050 ± 1174 CFU. The “pathological H&E staining of the synovial soft tissue (FIG. 2B)” value ([1]; vancomycin group, 44 mg/kg) was “a significant reduction in inflammatory cell infiltration in the synovium”, the “scanning electron microscopy observation of prosthesis (FIG. 2A)” value (“scanning electron microscopy observation” for short) ([1]; vancomycin treatment group, 44 mg/kg) was “a relatively large number of bacteria still remained” and the “Femur Mean Log10 CFU” value [2, 9] was 6.08 Log10 CFU. For the same compound, the “Log10 CFU Reduction vs. day 14 control, Femur” value [2, 9] was −0.80 Log10 CFU, the “Log10 CFU Reduction vs. day 14 control, Pin” value [2, 9] was −1.28 Log10 CFU and the “Pin Mean Log10 CFU” value [2, 9] was 3.49 Log10 CFU. It also gave an MIC [3] of 0.5 µg/mL (≈ 0.345 µM).

With CO[C@H]1/C=C/O[C@@]2(C)Oc3c(C)c(O)c4c(O)c(c(/C=N/N5CCC(N(C)C6([C@@H]7CCN(c8c(F)cn9c(=O)c(C(=O)O)cc(C%10CC%10)c9c8C)C7)CC6)CC5)c(O)c4c3C2=O)NC(=O)/C(C)=C\C=C\[C@H](C)[C@H](O)[C@@H](C)[C@@H](O)[C@@H](C)[C@H](OC(C)=O)[C@@H]1C [compound of formula (I)] the “Tissue bacterial load in bone tissue” value [1, 10] was 7083 ± 6280 CFU, the “Tissue bacterial load in prosthesis” value [1, 10] was 550 ± 207 CFU and the “Tissue bacterial load in soft tissue” value [1, 10] was 9717 ± 1387 CFU. The “Tissue bacterial load in bone tissue” value [1, 11] was 1383 ± 1068 CFU, the “Tissue bacterial load in prosthesis” value [1, 11] was 0 *** CFU and the “Tissue bacterial load in soft tissue” value [1, 11] was 5433 ± 3194 CFU. For the same compound, the “Tissue bacterial load in bone tissue” value [1, 12] was 2400 ± 1655 CFU, the “Tissue bacterial load in prosthesis” value [1, 12] was 0 *** CFU and the “Tissue bacterial load in soft tissue” value [1, 12] was 1517 ± 1011 CFU. The “pathological H&E staining of the synovial soft tissue (FIG. 2B)” value ([1]; high-dose group, 10 mg/kg) was “a significant reduction in inflammatory cell infiltration in the synovium”, the “scanning electron microscopy observation” value ([1]; high-dose group, 10 mg/kg) was “individual cocci embedded therein” and the “scanning electron microscopy observation” value ([1]; low-dose group, 2.5 mg/kg) was “the formation of a relatively large number of colonies could still be observed”. The “scanning electron microscopy observation” value ([1]; medium-dose group, 5 mg/kg) was “individual bacteria still present”, the “Femur Mean Log10 CFU” value [2, 13] was 6.51 Log10 CFU and the “Log10 CFU Reduction vs. day 14 control, Femur” value [2, 13] was −0.37 Log10 CFU. For the same compound, the “Log10 CFU Reduction vs. day 14 control, Pin” value [2, 13] was −0.51 Log10 CFU, the “Pin Mean Log10 CFU” value [2, 13] was 4.26 Log10 CFU and the “Femur Mean Log10 CFU” value ([2]; 5 mg/kg, 25 μL IA, QD × 7 days) was 5.17 Log10 CFU. The “Log10 CFU Reduction vs. day 14 control, Femur” value ([2]; 5 mg/kg, 25 μL IA, QD × 7 days) was −1.71 Log10 CFU, the “Log10 CFU Reduction vs. day 14 control, Pin” value ([2]; 5 mg/kg, 25 μL IA, QD × 7 days) was −2.50 Log10 CFU and the “Pin Mean Log10 CFU” value ([2]; 5 mg/kg, 25 μL IA, QD × 7 days) was 2.27 Log10 CFU. The “Femur Mean Log10 CFU” value [2, 14] was 5.33 Log10 CFU, the “Log10 CFU Reduction vs. day 14 control, Femur” value [2, 14] was −1.55 Log10 CFU and the “Log10 CFU Reduction vs. day 14 control, Pin” value [2, 14] was −2.25 Log10 CFU. The “Pin Mean Log10 CFU” value [2, 14] was 2.52 Log10 CFU, the “Femur Mean Log10 CFU” value [2, 15] was 3.76 Log10 CFU and the “Log10 CFU Reduction vs. day 14 control, Femur” value [2, 15] was −3.12 Log10 CFU. For the same compound, the “Log10 CFU Reduction vs. day 14 control, Pin” value [2, 15] was −2.54 Log10 CFU, the “Pin Mean Log10 CFU” value [2, 15] was 2.23 Log10 CFU and the “Femur Mean Log10 CFU” value [2, 16] was 3.42 Log10 CFU. For the same compound, the “Log10 CFU Reduction vs. day 14 control, Femur” value [2, 16] was −3.46 Log10 CFU, the “Log10 CFU Reduction vs. day 14 control, Pin” value [2, 16] was −2.72 Log10 CFU and the “Pin Mean Log10 CFU” value [2, 16] was 2.05 Log10 CFU. For the same compound, the “Femur Mean Log10 CFU” value [2, 9] was 3.46 Log10 CFU, the “Log10 CFU Reduction vs. day 14 control, Femur” value [2, 9] was −3.42 Log10 CFU and the “Log10 CFU Reduction vs. day 14 control, Pin” value [2, 9] was −2.72 Log10 CFU. For the same compound, the “Pin Mean Log10 CFU” value [2, 9] was 2.05 Log10 CFU, the “mean femur colony counts lower than those in the untreated control animals” value [2, 17] was 1.71-3.42 log10 CFU and the “mean pin colony counts lower than those in the untreated control animals” value [2, 17] was 2.5-2.72 logo CFU. For the same compound, the MIC90 [4] was 0.008 µg/mL, the “biofilm bactericidal activity MBBC90” value [5] was 250 ng/mL and the MIC90 [6] was 0.015 µg/mL. It also gave an AUC(0-t) ([7]; plasma) of 20.8 ± 7.15 µg·h/mL, a Cmax ([7]; plasma) of 736 ± 247 ng/mL and a Tmax ([7]; plasma) of 24 h. For the same compound, the half-life ([7]; plasma) was 12 h, the AUC(0-t) ([7]; synovial fluid) was 1000 ± 1050 µg·h/mL and the Cmax ([7]; synovial fluid) was 77400 ± 81900 ng/mL. For the same compound, the Tmax ([7]; synovial fluid) was 12 h, the half-life ([7]; synovial fluid) was 6.81 h and the Kp ([7]; synovial fluid/plasma, read-out: AUC ratio = AUC0-last in synovial fluid/AUC0-last in plasma) was 46.1. For the same compound, the “biofilm bactericidal activity MBBC90” value [8] was 2000 ng/mL and the MIC ([3]; MRSA ATCC43300 strain) was 0.032 µg/mL.
